Results reported in patent publication US6949581B2, “Water-soluble mono-PEGylated tetrapyrrole derivatives for photodynamic therapy and method of production” (CeramOptec Industries, Inc., priority 2003, dated 2005).
Counter-ions that a name gives are not always drawn.

Experiments:
[1] = concentrated (>1%) solution cannot be generated by Nakazato technique; cited from earlier work
[2] = system: HeLa (human cervix carcinoma cells); assay: Phototoxicity in HeLa cells under irradiation at 662 nm, MTT assay; assay type: cell-based; conditions: 30-minute incubation, 10 J/cm^2 irradiation
Description: Illumination was performed at 662 nm (Ceralas PDT laser, BioLitec AG, Germany; 150 mW/cm^2, 5-20 J/cm^2) after a 30-minute incubation period. Cell survival was measured using the MTT assay. Values are expressed as percentages of illuminated, but non-incubated controls. Experiments were performed in octuplets.

[3] = 4° C. in the dark, cited from earlier work

Question: With `C=Cc1c(C)c2cc3nc(c4c5[nH]c(cc6nc(cc1[nH]2)C(C)=C6CC)c(C)c5C(=O)[C@@H]4C(=O)OC)[C@@H](CCC(=O)O)[C@@H]3C` [sodium salt of pheophorbide a (4), sodium salt of pheophorbide a] as the compound, how does the “concentration of injectable solution in water that can be generated” value [1] read?
Answer: ≤ 1%

Question: Which results are given for “salt of pheophorbide a (5) with N-methyl-D-glucamine”?
Answer: IC50 phototoxicity [2]: 8.0 µg/mL; IC90 phototoxicity [2]: 22.0 µg/mL

Question: Which results are given for trisodium lysyl-chlorin p6?
Answer: stable in an aqueous solution ([3]; aqueous solution): ≤ 24 h; stable in solid form ([3]; solid form): up to 4 months
